Test results reported in patent publication US20160095867A1, “BET INHIBITION THERAPY FOR HEART DISEASE” (DANA-FARBER CANCER INSTITUTE, INC., priority 2013, published 2016).

Legend:
[1] = test system: mice with myocardial infarction (MI); assay: Large anterior wall myocardial infarction (permanent proximal LAD ligation) model; type: in vivo, mouse; conditions: 25 or 50 mg/kg/day IP from postoperative day 5
Description: Mice were subjected to permanent proximal LAD ligation to create a large anterior wall myocardial infarction (MI). JQ1 or vehicle was begun at the indicated doses (25 mg/kg/day or 50 mg/kg/day, intraperitoneal injection) on postoperative day 5. […] JQ1 attenuates the development of (FIGS. 12B and 15B) LV systolic dysfunction, (FIGS. 12C and 15C) LV cavity dilation, (FIGS. 12D and 15D) LV wall thickening, and (FIGS. 12E and 15E) cardiomegaly after a large anterior wall myocardial infarction. (FIG. 12—N=5 per group; FIG. 15—N=5 in sham group, N=10 in MI group). […] After a myocardial infarction, abnormal remodeling of the heart occurs in distant areas of non-infarcted myocardium, leading to cardiac dilation, enlargement, and contractile dysfunction. This is a very common cause of heart failure. […] Neither this model nor the TAC models involve atherosclerosis. Therefore, the ability to protect the heart in these settings are unrelated to any effects on atherosclerosis.

[2] = Treadmill endurance exercise capacity in mice; type: in vivo, mouse; conditions: JQ1 50 mg/kg/day IP, 2-3 weeks (17 days)
From the text: (§1) For transthoracic echocardiography, mice were anesthetized with 1% inhalational isofluorane and imaged using the Vevo 770 High Resolution Imaging System (Visual Sonics, Inc.) and the RMV-707B 30 MHz probe. Measurements were obtained from M-mode sampling and integrated EKV images taken in the LV short axis at the mid-papillary level (Haldar et al., 2010). Measurements of pressure gradients across the constricted portion of the aorta were obtained by high frequency Doppler as previously described (Liu et al., 2012). Conscious tail-vein systolic blood pressure was measured using the BP2000 Blood Pressure Analysis System (Visitech Systems, Inc.) as recommended by the manufacturer. To allow mice to adapt to the apparatus, we performed daily blood pressure measurements for one week prior to beginning experiments. Treadmill endurance exercise testing was performed on a motorized mouse treadmill (Columbus Instruments) as previously described (Haldar et al., 2012).

[3] = test system: Neonatal rat ventricular cardiomyocytes (NRVM); assay: Doxorubicin mediated apoptosis in cultured cardiomyocytes (TUNEL); type: cell-based; conditions: JQ1 250 nM 3 hours, then Doxo 1 μM 24 hours
Description: Doxorubicin (Doxo) is an anthracycline compound commonly used as cytotoxic chemotherapy for cancer. Doxo causes dose-dependent toxicity to cardiomyocytes and can cause cardiac enlargement, fibrosis and heart failure in patients. Cardiotoxicity is dose-limiting for anthracyclines such as Doxorubicin and Daunorubicin. […] Neonatal rat ventricular cardiomyocytes (NRVM) were treated with or without JQ1 (250 nM) for 3 hours, followed by treatment±Doxo (1 μM) for another 24 hours. Cells were assayed for apoptosis by TUNEL staining and nuclei were counterstained with DAPI.

mice subject to TAC = assay: Transverse aortic constriction (TAC) model, JQ1 begun 1.5 days after TAC; type: in vivo, mouse
Description: JQ1 was synthesized and purified in the laboratory of Dr. James Bradner (DFCI) as previously published (Filippakopoulos et al., 2010). For in vivo experiments, a stock solution (50 mg/mL in DMSO) was diluted to a working concentration of 5 mg/mL in aqueous carrier (10% hydroxypropyl β-cyclodextrin; Sigma C0926) using vigorous vortexing. Mice were injected at a dose of 50 mg/kg given intraperitoneally once daily. Vehicle controls were given an equal amount of DMSO in carrier solution. All solutions were prepared and administered using sterile technique. For in vitro experiments, JQ1 and other BET inhibitors were dissolved in DMSO and administered to cells at indicated concentrations using an equal volume of DMSO as control. The BET inhibitors used were as follows: iBET, iBET-151, RVX-208, and PF-1.
All mice were C57Bl/6J littermate males aged 10-12 weeks. For TAC, mice were anesthetized with ketamine/xylazine, mechanically ventilated (Harvard apparatus), and subject to thoracotomy. The aortic arch was constricted between the left and right carotid arteries using a 7.0 silk suture and a 27-gauge needle as previously described (Hu et al., 2003). In our hands, this protocol a consistent peak pressure gradient of approximately 50 mmHg across the constricted portion of the aorta. For PE infusion, mice were anesthetized using continuous 1% inhalational isofluorane. Mini-osmotic pumps (Alzet 2004, Durect Corp.) were filled with phenylephrine hydrochloride (PE, Sigma) or vehicle (normal saline) and implanted subcutaneously on the dorsal aspect of the mouse. PE was infused at a dose of 75 mg/kg/day for 17 days. Injections of JQ1 or vehicle were begun 1.5 days postoperatively.
as §1
Short-axis heart sections from the mid-ventricle were fixed in PBS/4% paraformaldehyde and embedded in paraffin. Cardiomyocyte cross sectional area was determined by staining with rhodamine-conjugated wheat-germ agglutinin (Vector Laboratories RL-1022) as quantified as previously described (Froese et al., 2011). Fibrosis was visualized using Masson's Trichrome staining kit (Biocare medical) with quantification of fibrotic area as previously described (Song et al., 2010). Terminal deoxynucleotidyl transferase dUTP nick-end label (TUNEL) staining and quantification was performed as previously described (Song et al., 2010) using the ApopTag Plus kit (Millipore) according to manufacturer's instructions. Myocardial capillary staining was performed in frozen LV sections using anti-PECAM-1 antibodies (EMD Millipore cat#CBL-1337) as previously described (Haldar et al., 2010).

[4] = JQ1 50 mg/kg/day IP from 1.5 days after TAC, out to 4 weeks

Cc1sc2c(c1C)C(c1ccc(Cl)cc1)=N[C@@H](CC(=O)OC(C)(C)C)c1nnc(C)n1-2 [JQ1]
development of LV cavity dilation after MI [1]: attenuates
development of LV systolic dysfunction after MI [1]: attenuates
development of LV wall thickening after MI [1]: attenuates
development of cardiomegaly after MI [1]: attenuates
mortality, myocardial rupture, LV aneurysm formation vs. vehicle control [1]: No excess mortality, myocardial rupture, and LV aneurysm formation
endurance exercise capacity (time to exhaustion) [2]: preserved endurance exercise capacity
Doxo induced cardiotoxicity (apoptosis, TUNEL positive nuclei) [3]: blocks
tolerability during TAC (activity, mortality, weight loss vs vehicle) (mice subject to TAC; JQ1 50 mg/kg/day): well tolerated
TAC-mediated LV cavity dilation (echocardiography) (mice subject to TAC; [4]): protected against
TAC-mediated LV systolic dysfunction (echocardiography) (mice subject to TAC; [4]): protected against
TAC-mediated LV wall thickening (echocardiography) (mice subject to TAC; [4]): protected against
pathologic cardiomegaly (HW/BW) (mice subject to TAC; JQ1 50 mg/kg/day, 4 weeks TAC): inhibited
pulmonary congestion (LW/BW) (mice subject to TAC; JQ1 50 mg/kg/day, 4 weeks TAC): inhibited
myocardial expression of canonical hypertrophic marker genes (mice subject to TAC; JQ1 50 mg/kg/day, after TAC): inhibited
effect on LV structure or function in sham treated mice (mice subject to TAC; JQ1 50 mg/kg/day, sham surgery): no adverse effect
TAC-mediated induction of c-Myc expression in vivo (mice subject to TAC; TAC mouse hearts, qRT-PCR): no effect
evolution of pathological gene expression program in the heart (microarray GEP) (mice subject to TAC; TAC, 3, 11 and 28 days): suppressed
apoptotic cell death (TUNEL) (mice subject to TAC; heart tissue, 4 weeks of TAC): significantly attenuated
capillary rarefaction (PECAM-1) (mice subject to TAC; heart tissue, 4 weeks of TAC): significantly attenuated
development of cardiomyocyte hypertrophy (wheat germ agglutinin, cardiomyocyte area) (mice subject to TAC; heart tissue, 4 weeks of TAC): significantly attenuated
myocardial fibrosis (Masson's Trichrome) (mice subject to TAC; heart tissue, 4 weeks of TAC): significantly attenuated
